Assay results published in patent publication US8642545B2, “Erythropoietin mimetic peptide derivative and its pharmaceutical salts, the preparation and uses thereof” (Jiangsu Hansoh Pharmaceutical Co., Ltd, priority 2007, dated 2014).
Read-outs that look alike come from different tables or passages of the source. *1 amine or outer side, *2 acyl side, *3 side chain or, on linkers, in order; H or OH if unused. Bridges are numbered along the chain shown (N, C = ends). Roman numbers before positions name the chains, in order. [ ]: non-standard residue; d: D form. ξ: configuration not given here. X1 = NCCNC(=O)OC(CCC(=O)[*:1])CCC(=O)[*:2]; Nle = CCCC[C@H](N)C(=O)O; ξK = NCCCCC(N)C(=O)O; βAla = NCCC(=O)O

Assays:
erythropoiesis of mice = test: Effects of EPO mimetic peptide derivatives on mice, sc injection on three consecutive days, peripheral blood cell and reticulocyte counts; type: in vivo, Kunming mice; details: for Platelet / White Blood Cell: 4.5 mg/kg
Description: The biological activity of EPO, or EPO mimetic peptide derivatives and their pharmaceutical salts provided by this invention can be determined by various assays known in this field. Testing of in vivo activity is performed as follows: mice are subcutaneously injected with EPO and EPO mimetic peptide derivatives and their pharmaceutical salts provided by this invention on three consecutive days. The mice are then sacrificed. The whole blood is taken to carry out peripheral blood cells and reticulocyte count. The blood cell count is performed by automatic blood cell counter. […] The dose of EPO protein as a control drug is 240 μ/kg. The drugs are administered three times per week and the administration continues for six weeks. The blood samples are collected to carry out related hematological index analysis. The purpose of the experiments is to evaluate and compare the effects of EPO mimetic peptide derivatives and the EPO protein on erythropoiesis of mice. […] EPO is purchased from […] Pharmaceutical Co., Ltd. Kunming mice are purchased from the Chinese Academy of Sciences Shanghai Experimental Animal Center, weighing 25 30 g, ♀. The number of animals in each group is 10. Mice are injected subcutaneously with EPO mimetic peptide derivatives and EPO protein for three consecutive days. Then the mice are killed, the whole blood is used to carry out peripheral blood cells and reticulocyte counts. Blood cell count is performed using automatic blood cell counter counts.

[1] = system: erythropoiesis of the macaques; test: Effects of EPO mimetic peptide derivatives on macaques, hematological indexes; type: in vivo
Description: The biological activity of EPO, or EPO mimetic peptide derivatives and their pharmaceutical salts provided by this invention can be determined by various assays known in this field. Testing of in vivo activity is performed as follows: mice are subcutaneously injected with EPO and EPO mimetic peptide derivatives and their pharmaceutical salts provided by this invention on three consecutive days. The mice are then sacrificed. The whole blood is taken to carry out peripheral blood cells and reticulocyte count. The blood cell count is performed by automatic blood cell counter. Pharmacodynamic studies are carried out by intravenous administration to macaques with a dose of 1.35 mg/kg. The dose of EPO protein as a control drug is 240 μ/kg. The drugs are administered three times per week and the administration continues for six weeks. The blood samples are collected to carry out related hematological index analysis.
The purpose of this experiment is to evaluate the effects of EPO mimetic peptide derivatives on erythropoiesis of the macaques.
EPO mimetic peptide HH-EPO-018 is provided by Jiangsu Hansoh Pharmaceutical co., LTD. EPO is purchased from Shenyang Sansheng Pharmaceutical Co., Ltd. The samples are diluted in a saline containing 0.1% BSA before they are used.
Macaques, weighing 5.5˜8.5 kg, male or female, are purchased from Suzhou Xishan Zhongke Laboratory Animal Center. Macaques are grouped according to the basis of hemoglobin with each group having three macaques. HH-EPO-018 is intravenously injected once at a dose of 1.35 mg/kg; EPO is injected three times per week at a dose of 240 μg/kg. The administration is continued for five weeks. Measure hematological indexes are measured 1˜2 times per week.

[2] = system: EPO binding sites on immature red blood cells; details: cited from earlier work
[3] = system: EPO binding sites on red blood cells from the spleen; details: about 400 binding sites, some, cited from earlier work
[4] = macaques, 240 μg/kg three times per week, five weeks
[5] = current dosage regimen, three consecutive days

For “I: Ac-GGTYSC[Nle]FGPLTWVCRPQRG[βAla][ξK]-NH2 / II: Ac-GGTYSC[Nle]FGPLTWVCRPQRG[βAla][ξK]-NH2 (disulfide I:6-I:15, II:6-II:15; linker I:22-II:22 via X1) [HH-EPO-006]”, the Platelet (erythropoiesis of mice; mouse, d1-3) was 1087.8 ± 118.5 ×10^3/μL and the “White Blood Cell” value (erythropoiesis of mice; mouse, d1-3) was 4.1 ± 1.2 ×10^3/μL.

For “I: Ac-GGTYSCHFGPLTWVCRPQRG[βAla][ξK]-NH2 / II: Ac-GGTYSCHFGPLTWVCRPQRG[βAla][ξK]-NH2 (disulfide I:6-I:15, II:6-II:15; linker I:22-II:22 via X1) [HH-EPO-005]”, the Platelet (erythropoiesis of mice; mouse, d1-3) was 1957.8 ± 349.5 ×10^3/μL and the “White Blood Cell” value (erythropoiesis of mice; mouse, d1-3) was 4.2 ± 1.2 ×10^3/μL.

For “I: Ac-GGTYSCHFGSLTWVCRPQRG[βAla][ξK]-NH2 / II: Ac-GGTYSCHFGSLTWVCRPQRG[βAla][ξK]-NH2 (disulfide I:6-I:15, II:6-II:15; linker I:22-II:22 via X1) [HH-EPO-007]”, the Platelet (erythropoiesis of mice; mouse, d1-3) was 2082.1 ± 863.9 ×10^3/μL and the “White Blood Cell” value (erythropoiesis of mice; mouse, d1-3) was 3.6 ± 0.8 ×10^3/μL.

With “I: Ac-GGTYSCHFGALTWVCRPQRG[βAla][ξK]-NH2 / II: Ac-GGTYSCHFGALTWVCRPQRG[βAla][ξK]-NH2 (disulfide I:6-I:15, II:6-II:15; linker I:22-II:22 via X1) [HH-EPO-008]” the Platelet (erythropoiesis of mice; mouse, d1-3) was 1685.5 ± 351.3 ×10^3/μL and the “White Blood Cell” value (erythropoiesis of mice; mouse, d1-3) was 2.9 ± 0.5 ×10^3/μL.

With “EPO: EPO protein purchased from Shenyang Sansheng Pharmaceutical Co., Ltd.; control drug” the “stimulation on macaque hemoglobin generation, HH-EPO-018 compared with EPO (in words)” value ([1]; according to the current dosing regimens) was “similar”, the “blood cell hematocrit (in words)” value [1, 4] was “increases” and the “peripheral blood hemoglobin content (in words)” value [1, 4] was “increases”. The Kd ([2]; about 300 binding sites of about 800 to 1000 per cell membrane) was 0.09 nM, the Kd ([2]; remaining binding sites, weak binding) was roughly 0.57 nM and the Kd ([3]; "high Kd") was 0.1 nM. For the same substance, the Kd ([3]; "low Kd") was 0.8 nM, the “influence on mature red blood cells, blood cell hematocrit, hemoglobin content (in words)” value (erythropoiesis of mice; [5]) was “no significant influence” and the “mouse peripheral blood reticulocyte count (in words)” value (erythropoiesis of mice; [5]) was “significantly promote the increase”. The “Blood Cell Hematocrit” value (erythropoiesis of mice; mouse, 5 μg/kg, d1-3) was 46.2 ± 2.7%, the “Red Blood Cell Count” value (erythropoiesis of mice; mouse, 5 μg/kg, d1-3, x ± SD) was 9.0 ± 0.6 ×10^6/μL and the “Reticulocyte Count” value (erythropoiesis of mice; mouse, 5 μg/kg, d1-3, x ± SD) was 483.9 ± 146.5 ×10^9/L. The “influence on the peripheral white blood cell count (in words)” value (erythropoiesis of mice; mouse, in vivo) was “no significant influence”.
